Test results from patent US20200171118A1.
Where two headings read alike, the source gives them in different places.

How the values were obtained:
[1] = Lewis acidity measuring method (1): rate of oxidation of CoTPP by O2 in the presence of the Lewis acid; type: physicochemical; conditions: for Lewis acidity (ΔE value): calculated from rate of oxidization of CoTPP with O2
Escherichia coli MV1184 = test: MIC/MBC determination, sterilizing effect (microplate, BHI liquid medium); type: cell-based; conditions: E. coli MV1184; substance 12.5 to 20 ppm, sodium chlorite about 0.14 mM to 0.22 mM

Lewis acidity (ΔE value) [1] [eV] | Molecule | sterilizing action (sterilizing effect) of drug made from the substance and sodium chlorite (Escherichia coli MV1184) | further results
0.52 | CCCCCCCCCCCCCCCCCC[N+](C)(C)Cc1ccccc1.[Cl-] | has a sterilizing action (sterilizing effect) | kcat, reaction rate constant of reaction between CoTPP and oxygen in the presence of a Lewis acid ([1]; acetonitrile, saturated O2, room temperature): 0.18 M^−2 s^−1
0.51 | CC(=O)OCC[N+](C)(C)C [Acetylcholine] |  | 
0.54 | CC[N+](CC)(CC)Cc1ccccc1.[Cl-] [Benzyltriethyl ammonium chloride] |  | 
0.67 | C[N+](C)(C)CC(=O)O [Betaine] |  | 
0.52 | C[N+](C)(C)CCOC(N)=O [Carbamylcholine] |  | 
 | N[C@@H](CC(=O)O)C(=O)O [L-aspartate] | has a sterilizing action (sterilizing effect) | 
 | N[C@@H](CO)C(=O)O [L-serine] | has a sterilizing action (sterilizing effect) | 
0.67 | Cc1cc2nc3cc(C)c(N)cc3[n+](-c3ccccc3)c2cc1N.[Cl-] [Safranine] |  | 
0.69 | C[n+]1cccc(C(=O)[O-])c1 [Trigonelline] |  | 
 | NCC(=O)O [glycine] | has a sterilizing action (sterilizing effect) | 
 | O=C(O)[C@@H]1CCCN1 [proline] | has a sterilizing action (sterilizing effect) | 
 | CCCC[N+](CCCC)(CCCC)CCCC.F[P-](F)(F)(F)(F)F [tetrabutylammonium hexafluorophosphate] |  | kcat, reaction rate constant of reaction between CoTPP and oxygen in the presence of a Lewis acid [1]: >0.1 M^−2 s^−1
 | benzethonium chloride | has a sterilizing action (sterilizing effect) | 
 | oxidized glutathione | has a sterilizing action (sterilizing effect) | 

Molecule | Lewis acidity (ΔE value) [1] [eV] | sterilizing action (sterilizing effect) of drug made from the substance and sodium chlorite (Escherichia coli MV1184) | further results
Cl.N [Ammonium chloride] | 0.66 | has a sterilizing action (sterilizing effect) | 
CCCC[N+](CCCC)(CCCC)CCCC.[Cl-] [Tetrabutylammonium chloride] | 0.63 | has a sterilizing action (sterilizing effect) | 
C[N+](C)(C)C.[Cl-] [Tetramethylammonium chloride] | 0.50 |  | 
CN.Cl [methylammonium chloride] | 0.70 | has a sterilizing action (sterilizing effect) | 
C[n+]1ccccc1C=NO.[I-] [pralidoxime methyl iodide] | 0.60 |  | 
